For six compounds, Ki results are on record in US6849657B2, “2-pyrrolidone derivatives as prostanoid agonists” (Syntex (U.S.A.) LLC, priority 2001, dated 2005).

In general, Ki refers to a measure of affinity in units of concentration, obtained from inhibition or displacement.

For one assay, the target named is rEP2 receptor (UniProt Q62928). Kind of assay: Competitive binding assay of [3H]PGE2 to rEP2 receptor. The settings on record: [3H]-PGE2 competitive binding, membranes of transfected COS-7 cells, pH 6.0, 45 minutes at 23° C.; read-out: EP2, Ki. How it is done: (§1) Competitive Binding Assay of [^3H]PGE2 to rEP1, rEP2, rEP3 and rEP4 Receptor
(§2) Stably transfected cells expressing EP3 were grown in F-12 media (GIBCO) supplemented with 10% heat inactivated certified Fetal Bovine Serum (GIBCO) and pelleted. Prostanoid receptor EP2 or EP4 cDNA corresponding to the full-length coding sequence was subcloned into the appropriate sites of the mammalian expresson vector pcDNA 3.1(+)/Zeo (Invitrogen). Transfection-scale quantities of the vector were prepared using the Qiagen Endo-Free Plasmid Maxi Kit and transfected into COS-7 cells using FuGene 6 (Roche Molecular) according to the manufacturer's instructions (Roche). COS-7 cells were grown in DMEM (GIBCO) supplemented with 10% heat inactivated certified Fetal Bovine Serum (GIBCO) and Gentamicin (GIBCO), and were harvested 72 hours after transfection. Cells were pelleted by centrifugation, washed with PBS (GIBCO), repelleted, then flash-frozen in dry-ice/Ethanol or used directly for membrane preparation.
(§3) All procedures for membrane preparation were performed at 4° C. Prostanoid receptor-transfected COS-7 cells or stably transfected CHO cells were homogenized in assay buffers (see recipe, below) using a Polytron homogenizer (Brinkman) and centrifuged at 48,000×g for 30 minutes. Pellets were resuspended in assay buffer and resuspended by sonication using a Branson sonifier. Protein concentration was determined using the BioRad DC Protein Assay following the manufacturer's directions and stored at −80° C.
Methods for competitive affinity binding assays of EP2, EP3 and EP4 were derived from those described in M. Abramovitz et al, “The utilization of recombinant prostanoid receptors to determine the affinities and selectivities of prostaglandins and related analogs” Biochimica et Biophysica Acta 1483 (2000) 285-293. Binding assays were performed in a final incubation volume of 0.2 mL in the following assay buffers: 20 mM HEPES, 1 mM EDTA, and 10 mM MgCl2 (pH 7.4) (EP3) or 10 mM MES, 10 mM MnCl2, and 1 mM EDTA_(pH to 6.0 with NaOH) (EP2 and EP4) and radioligand {2.25 nM (EP3) or 2.5 nM (EP2) [^3H]-PGE2 (200 Ci/mmol, NEN)}. Reactions were initiated by addition of membrane protein (approximately 50 ug/reaction for EP3, 100 ug for EP2 and EP4). Dimethylsulfoxide (Sigma) concentration was kept constant at 1% (v/v) in all incubations, and compounds were assayed at final concentrations of 100 uM-0.3 nM. Non-specific binding was determined in the presence of 10 µM of non-radioactive PGE2 (Cayman Chemical). Incubations were conducted for 60 minutes at 30° C. (EP3) or 45 minutes at 23° C. (EP2 and EP4). Incubations were terminated by rapid filtration through a 96-well Unifilter GF/B (Packard) (prewetted in 10 mM MES, 0.01% BSA, pH 6.0 for EP2) at 4° C. using a Filtermate 196 96-well semi-automated cell harvester (Packard). The filters were washed with 3-4 mL of wash buffer (20 mM HEPES pH 7.4 for EP3, 10 mM MES, 0.01% BSA, pH 6.0 for EP2 and EP4), dried for at least 1 hour at room temperature, and the residual radioactivity bound to the individual filters determined by scintillation counting with addition of 37.5 uL of Microscint 20 (Packard) using a Packard TopCount Microplate Scintillation Counter. Statistics of binding were determined using Prism v 3.0 software (GraphPad).

Another assay addresses T1, rEP3 receptor (UniProt P34980).
T1 sequence (P34980 1-365): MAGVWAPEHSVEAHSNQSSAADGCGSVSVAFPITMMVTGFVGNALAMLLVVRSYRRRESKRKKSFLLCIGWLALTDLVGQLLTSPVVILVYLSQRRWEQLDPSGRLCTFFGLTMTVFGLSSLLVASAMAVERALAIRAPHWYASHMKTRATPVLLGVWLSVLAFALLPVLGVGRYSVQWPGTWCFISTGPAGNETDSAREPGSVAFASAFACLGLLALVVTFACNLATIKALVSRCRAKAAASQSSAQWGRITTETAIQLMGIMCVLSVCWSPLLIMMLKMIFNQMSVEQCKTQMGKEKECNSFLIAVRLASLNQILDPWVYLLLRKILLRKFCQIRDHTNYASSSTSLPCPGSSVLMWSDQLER
The experiment in a line: Competitive binding assay of [3H]PGE2 to rEP3 receptor. The settings on record: [3H]-PGE2 competitive binding, membranes of stably transfected cells, pH 7.4, 60 minutes at 30° C.; read-out: EP3, Ki. As to the method:
as §1, §2, §3
Methods for competitive affinity binding assays of EP2, EP3 and EP4 were derived from those described in M. Abramovitz et al, “The utilization of recombinant prostanoid receptors to determine the affinities and selectivities of prostaglandins and related analogs” Biochimica et Biophysica Acta 1483 (2000) 285-293. Binding assays were performed in a final incubation volume of 0.2 mL in the following assay buffers: 20 mM HEPES, 1 mM EDTA, and 10 mM MgCl2 (pH 7.4) (EP3) or 10 mM MES, 10 mM MnCl2, and 1 mM EDTA_(pH to 6.0 with NaOH) (EP2 and EP4) and radioligand {2.25 nM (EP3) or 2.5 nM (EP2) [^3H]-PGE2 (200 Ci/mmol, NEN)}. […] Non-specific binding was determined in the presence of 10 µM of non-radioactive PGE2 (Cayman Chemical). […] The filters were washed with 3-4 mL of wash buffer (20 mM HEPES pH 7.4 for EP3, 10 mM MES, 0.01% BSA, pH 6.0 for EP2 and EP4), dried for at least 1 hour at room temperature, and the residual radioactivity bound to the individual filters determined by scintillation counting with addition of 37.5 uL of Microscint 20 (Packard) using a Packard TopCount Microplate Scintillation Counter. Statistics of binding were determined using Prism v 3.0 software (GraphPad).

The target in a further assay is rEP4 receptor (UniProt P43114). Kind of assay: Competitive binding assay of [3H]PGE2 to rEP4 receptor. As to the method:
as §1, §2, §3
Reactions were initiated by addition of membrane protein (approximately 50 ug/reaction for EP3, 100 ug for EP2 and EP4). Dimethylsulfoxide (Sigma) concentration was kept constant at 1% (v/v) in all incubations, and compounds were assayed at final concentrations of 100 uM-0.3 nM. Non-specific binding was determined in the presence of 10 µM of non-radioactive PGE2 (Cayman Chemical). Incubations were conducted for 60 minutes at 30° C. (EP3) or 45 minutes at 23° C. (EP2 and EP4). […] The filters were washed with 3-4 mL of wash buffer (20 mM HEPES pH 7.4 for EP3, 10 mM MES, 0.01% BSA, pH 6.0 for EP2 and EP4), dried for at least 1 hour at room temperature, and the residual radioactivity bound to the individual filters determined by scintillation counting with addition of 37.5 uL of Microscint 20 (Packard) using a Packard TopCount Microplate Scintillation Counter. Statistics of binding were determined using Prism v 3.0 software (GraphPad).

[1] abbreviates: [3H]-PGE2 competitive binding, membranes of transfected COS-7 cells, pH 6.0, 45 minutes at 23° C.; read-out: EP4, Ki.

Like-named read-outs stand apart in the source and are kept apart here.

`CCCCC[C@H](O)/C=C/[C@H]1CCC(=O)N1CCSCCCC(=O)O` [Compound 1, 4-[(2-{(2R)-2-[(1E,3S)-3-hydroxyoct-1-enyl]-5-oxopyrrolidin-1-yl}ethyl)thio]butanoic acid]: the Ki worked out at 1.6 µM at rEP2 receptor, 2.6 µM at rEP3 receptor and 0.005 µM on rEP4 receptor (setting [1]).

For the compound `CCCCCC(O)/C=C/[C@H]1CCC(=O)N1C/C=C\COCC(=O)O` (stereo partly drawn) [Compound 8, {(Z)-4-[(R)-2-((E)-3-hydroxy-oct-1-enyl)-5-oxo-pyrrolidin-1-yl]-but-2-enyloxy}-acetic acid], the Ki at rEP2 receptor was over 10 µM.

For `O=C(O)COCCCCN1C(=O)CC[C@@H]1/C=C/[C@@H](O)Cc1cccc(C(F)(F)F)c1` [Compound 10, (4-{(R)-2-[(S)-(E)-3-hydroxy-4-(3-trifluoromethyl-phenyl)-but-1-enyl]-5-oxo-pyrrolidin-1-yl}-butoxy)-acetic acid], the Ki on rEP2 receptor was 66 µM; at rEP3 receptor, over 10 µM; on rEP4 receptor (read-out: EP4, Ki; [3H]-PGE2 competitive binding, membranes of transfected COS-7 cells, pH 6.0, 45 minutes at 23° C.), 0.007 µM.

Regarding `CCCCCC(C)(O)/C=C/[C@H]1CCC(=O)N1CCSCCCC(=O)O` (stereo partly drawn) [Compound 14, 4-{2-[(R)-2-((E)-3-hydroxy-3-methyl-oct-1-enyl)-5-oxo-pyrrolidin-1-yl]-ethylsulfanyl}-butyric acid], the Ki came out at 18 µM on rEP2 receptor and 0.09 µM at rEP4 receptor (setting [1]).

Turning to `O=C(O)CCCSCCN1C(=O)CC[C@@H]1CC[C@@H](O)c1cccc(Oc2cccc(F)c2)c1` [Compound 15, 4-[2-((S)-2-{(R)-3-[3-(3-Fluoro-phenoxy)-phenyl]-3-hydroxy-propyl}-5-oxo-pyrrolidin-1-yl)-ethylsulfanyl]-butyric Acid], the Ki at rEP2 receptor worked out at 7.8 µM; at rEP3 receptor it was 49 µM; at rEP4 receptor (setting [1]) it was 0.008 µM.

Regarding `CCCCC[C@H](O)/C=C/C1CCC(=O)N1OCCCCCC(=O)O` (stereo partly drawn) [Compound 28, 6-[2-((S)-(E)-3-Hydroxy-oct-1-enyl)-5-oxo-pyrrolidin-1-yloxy]-hexanoic acid], the Ki at rEP2 receptor was over 10 µM; at rEP3 receptor it was over 10 µM; on rEP4 receptor (setting [1]), 0.06 µM.
